For test [1], the target named is T1, human recombinant serotonin (5-Hydroxytryptamine) 5-HT6 receptor (Homo sapiens, UniProt P50406).
T1 construct: expressed in transfected cells; host or cells: human HeLa cells
Briefly: Serotonin 5-HT6 radioligand binding assay. To be noted: [3H]LSD specific binding, read-out: Percent Inhibition of ligand binding, Serotonin (1 μM ligand concentration) 5-HT6. On the procedure:
To evaluate in radioligand binding assays the activity of compounds of the invention, human recombinant serotonin (5-Hydroxytryptamine) 5-HT6 receptor expressed in human HeLa cells [Monsma, F. J. Jr et al., Mol. Pharmacol. (1993), 43:320] in a modified Tris-HCl buffer (50 mM Tris-HCl, pH 7.4, 150 mM NaCl, 2 mM Ascorbic Acid, 0.001% BSA) was used. Compounds of the invention were incubated with 1.5 nM [3H]Lysergic acid diethylamide (LSD) for 120 min. at 37° C. Non-specific binding was estimated in the presence of 5 μM Serotonin (5-HT). Receptor proteins were filtered and washed, the filters were then counted to determine[3H]LSD specifically bound. Compounds were screened at 1 μM or lower, using 1% DMSO as vehicle. Biochemical assay results are presented as the percent inhibition of specific binding in Table 4.

For test [2], the target named is T2, human recombinant adrenergic α2A receptor (Homo sapiens, UniProt P08913).
T2 construct: expressed in transfected cells; host or cells: insect Sf9 cells
T2 sequence (P08913 1-465): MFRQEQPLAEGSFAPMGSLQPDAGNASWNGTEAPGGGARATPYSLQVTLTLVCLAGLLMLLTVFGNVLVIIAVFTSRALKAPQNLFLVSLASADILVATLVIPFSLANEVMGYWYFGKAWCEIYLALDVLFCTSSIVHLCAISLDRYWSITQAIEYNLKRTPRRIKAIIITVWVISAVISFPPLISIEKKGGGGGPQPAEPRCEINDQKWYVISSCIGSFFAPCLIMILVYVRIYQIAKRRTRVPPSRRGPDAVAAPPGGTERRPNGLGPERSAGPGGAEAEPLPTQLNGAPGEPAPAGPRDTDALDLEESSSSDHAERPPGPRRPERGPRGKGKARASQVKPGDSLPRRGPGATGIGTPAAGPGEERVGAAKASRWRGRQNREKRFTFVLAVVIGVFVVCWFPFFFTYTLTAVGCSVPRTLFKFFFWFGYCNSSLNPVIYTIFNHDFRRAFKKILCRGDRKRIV
Briefly: Adrenergic α2A radioligand binding assay. The conditions noted are these: 1 μM; [3H]MK-912 specific binding; read-out: Percent Inhibition of ligand binding, Adrenergic (1 μM ligand conc.) α2A. As for the experimental part:
To evaluate in radioligand binding assays the activity of compounds of the invention, human recombinant adrenergic α2A receptor expressed in insect Sf9 cells [Uhlen, S et al. J. Pharmacol. Exp. Ther. (1994), 271:1558] in a modified Tris-HCl buffer (50 mM Tris-HCl, pH 7.4, 12.5 mM MgCl2, 2 mM EDTA) was used. Compounds of invention were incubated with 1 nM [^3H]MK-912 for 60 min. at 25° C. MK912 was (2S-trans)-1,3,4,5′,6,6′,7,12b-octahydro-1′,3′-dimethyl-spiro[2H-benzofuro[2,3-a]quinolizine-2,4′(1′H)-pyrimidin]-2′(3′H)-one hydrochloride Non-specific binding was estimated in the presence of 10 μM WB-4101 (2-(2,6-dimethoxyphenoxyethyl)aminomethyl-1,4-benzodioxane hydrochloride). Receptor proteins were filtered and washed, the filters were then counted to determine [^3H]MK-912 specifically bound. Compounds were screened at 1 μM or lower, using 1% DMSO as vehicle. Compounds of the invention were tested in this biochemical assay. Biochemical assay results for representative compounds were presented as the percent inhibition of specific binding in Table 3.

Test [3] addresses human recombinant histamine H1 receptor (Homo sapiens, UniProt P35367). The test is described as follows: Histamine H1 radioligand binding assay. The conditions noted are these: [3H]Pyrilamine specific binding; for inhibition at 1 µM: read-out: Percentage Inhibition, Histamine Binding (1 μM) H1. As for the experimental part:
To evaluate in radioligand binding assays the activity of compounds of the invention, human recombinant histamine H1 receptor expressed in Chinese hamster ovary (CHO) cells [De Backer, M. D. et al., Biochem. Biophys. Res. Comm. (1993), 197(3):1601] in a modified Tris-HCl buffer (50 mM Tris-HCl, pH 7.4, 2 mM MgCl2, 100 mM NaCl, 250 mM Sucrose) was used. Compounds of the invention were incubated with 1.2 nM [^3H]Pyrilamine for 180 min. at 25° C. Non-specific binding was estimated in the presence of 1 μM pyrilamine. Receptor proteins were filtered and washed, the filters were then counted to determine [^3H]Pyrilamine specifically bound. Compounds were screened at 1 μM or lower, using 1% DMSO as vehicle. Biochemical assay results are presented as the percent inhibition of specific binding in Table 2.

The target of test [4] is T3, human recombinant serotonin (5-Hydroxytryptamine) 5-HT2A receptor (Homo sapiens, UniProt P28223).
T3 construct: expressed in transfected cells; host or cells: Chinese hamster ovary (CHO-K1) cells
Briefly: Serotonin 5-HT2A radioligand binding assay. The conditions noted are these: [3H]Ketanserin specific binding, read-out: Percent Inhibition of ligand binding, Serotonin (1 μM ligand concentration) 5-HT2A. On the procedure:
To evaluate in radioligand binding assays the activity of compounds of the invention, human recombinant serotonin (5-Hydroxytryptamine) 5-HT2A receptor expressed in Chinese hamster ovary (CHO-K1) cells [Bonhaus, D. W. et al., Br. J. Pharmacol. (1995), 115:622; Saucier, C. et al., J. Neurochem. (1997), 68:1998] in a 50 mM Tris-HCl buffer, pH 7.4, was used. Compounds of the invention were incubated with 0.5 nM [^3H]Ketanserin for 60 min. at 25° C. Non-specific binding was estimated in the presence of 1 μM Mianserin. Receptor proteins were filtered and washed, the filters were then counted to determine [^3H]Ketanserin specifically bound. Compounds were screened at 1 μM or lower, using 1% DMSO as vehicle. Biochemical assay results are presented as the percent inhibition of specific binding in Table 4.

SMILES strings stand for the structures.

T1 sequence (P50406 whole entry): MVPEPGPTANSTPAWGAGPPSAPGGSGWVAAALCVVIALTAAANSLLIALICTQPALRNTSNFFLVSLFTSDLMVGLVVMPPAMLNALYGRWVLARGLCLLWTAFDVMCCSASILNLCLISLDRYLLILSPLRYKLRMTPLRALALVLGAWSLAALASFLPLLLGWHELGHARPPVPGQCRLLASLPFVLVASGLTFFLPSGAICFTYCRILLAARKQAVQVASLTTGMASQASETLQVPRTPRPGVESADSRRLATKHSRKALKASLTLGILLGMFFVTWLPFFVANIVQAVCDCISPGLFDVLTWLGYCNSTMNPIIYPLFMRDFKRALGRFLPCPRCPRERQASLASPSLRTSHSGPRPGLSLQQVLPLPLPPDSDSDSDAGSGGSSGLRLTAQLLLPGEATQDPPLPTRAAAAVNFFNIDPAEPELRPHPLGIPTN
Chain of human recombinant histamine H1 receptor (P35367 whole entry): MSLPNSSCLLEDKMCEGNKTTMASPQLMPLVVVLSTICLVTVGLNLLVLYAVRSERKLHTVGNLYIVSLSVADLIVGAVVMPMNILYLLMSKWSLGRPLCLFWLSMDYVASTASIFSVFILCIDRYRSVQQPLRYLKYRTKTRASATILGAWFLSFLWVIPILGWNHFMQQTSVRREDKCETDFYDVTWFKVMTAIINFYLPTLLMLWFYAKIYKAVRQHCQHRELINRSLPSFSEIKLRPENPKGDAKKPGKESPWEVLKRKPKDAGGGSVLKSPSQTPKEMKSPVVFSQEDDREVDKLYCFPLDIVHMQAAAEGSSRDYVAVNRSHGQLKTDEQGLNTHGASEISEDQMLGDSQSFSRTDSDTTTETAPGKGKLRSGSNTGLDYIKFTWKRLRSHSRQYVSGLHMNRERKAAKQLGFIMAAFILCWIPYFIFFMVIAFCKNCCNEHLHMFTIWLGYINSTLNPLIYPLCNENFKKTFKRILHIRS
T3 sequence (P28223 whole entry): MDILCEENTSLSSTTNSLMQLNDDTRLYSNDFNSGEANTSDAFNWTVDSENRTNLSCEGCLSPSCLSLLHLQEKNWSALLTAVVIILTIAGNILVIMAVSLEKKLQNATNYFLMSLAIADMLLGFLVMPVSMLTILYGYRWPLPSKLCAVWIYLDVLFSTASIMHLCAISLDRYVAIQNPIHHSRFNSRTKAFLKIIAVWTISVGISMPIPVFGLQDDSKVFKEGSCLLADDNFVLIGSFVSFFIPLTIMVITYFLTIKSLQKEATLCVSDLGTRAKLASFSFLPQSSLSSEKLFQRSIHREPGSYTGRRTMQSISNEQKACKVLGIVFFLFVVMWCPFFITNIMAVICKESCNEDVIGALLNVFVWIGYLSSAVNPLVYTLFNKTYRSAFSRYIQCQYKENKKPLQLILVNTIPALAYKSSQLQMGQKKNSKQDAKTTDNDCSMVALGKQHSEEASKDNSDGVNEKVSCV

Turning to `Cc1ccc2c(c1)c1c(n2CCc2ccc(C(F)(F)F)nc2)CN2CCC1C2` (stereo not drawn) [Compound 1], the inhibition at 1 µM in test [1] came out at 10%; in test [2] it was 25%; in test [3] it was 32%; in test [4] it was 18%.

With `Cc1ccc2c(c1)c1c(n2CC(C)(O)c2ccc(F)cc2)CN2CCC1C2` (stereo not drawn) [Compound 2], the inhibition at 1 µM in test [1] is 58%; in test [2], 54%; in test [3] it was 21%; in test [4], 76%.

In the case of `C=C(Cn1c2c(c3cc(C)ccc31)C1CCN(C2)C1)c1ccc(F)cc1` (stereo not drawn) [Compound 3], the inhibition at 1 µM in test [1] was 105%; in test [2] it was 93%; in test [3], 59%; in test [4], 94%. Moreover, the “Percentage Inhibition, Histamine Binding (1 μM) H1” value in test [3] (1 µM) was 60%.

Regarding `Cc1ccc2c(c1)c1c(n2CC(O)c2ccccc2)CN2CCC1C2` (stereo not drawn) [Compound 4], the inhibition at 1 µM in test [1] was found to be 56%; in test [2], 54%; in test [3] it was 67%; in test [4], 49%.

With `Cc1ccc(C(O)Cn2c3c(c4cc(C)ccc42)C2CCN(C3)C2)cc1` (stereo not drawn) [Compound 5], the inhibition at 1 µM was determined as 14% in test [1], 44% in test [2], 48% in test [3] and 81% in test [4].

`COc1ccc(C(O)Cn2c3c(c4cc(C)ccc42)C2CCN(C3)C2)cc1F` (stereo not drawn) [Compound 6]: the inhibition at 1 µM in test [1] turned out to be 22%; in test [2] it was 23%; in test [3], 86%; in test [4] it was 45%.

For `Cc1ccc2c(c1)c1c(n2CC(=O)N2CCCCC2)CN2CCC1C2` (stereo not drawn) [Compound 7], the inhibition at 1 µM in test [1] is 0%; in test [2], 9%; in test [3], 17%; in test [4], -3%.

As to `COc1ccc(C(O)Cn2c3c(c4cc(C)ccc42)C2CCN(C3)C2)cc1OC` (stereo not drawn) [Compound 8], the inhibition at 1 µM stood at 11% in test [1], 1% in test [2], 33% in test [3] and 25% in test [4].

As for `Cc1ccc2c(c1)c1c(n2CCc2cncc(F)c2)CN2CCC1C2` (stereo not drawn) [Compound 9], the inhibition at 1 µM in test [1] is 40%; in test [2] it was 2%; in test [3], 89%; in test [4], -6%.

For `Cc1ccc(/C=C/n2c3c(c4cc(C)ccc42)C2CCN(C3)C2)cc1` (stereo not drawn) [Compound 10], the inhibition at 1 µM was -4% in test [1], 38% in test [2], 70% in test [3] and 20% in test [4].

Take `Cc1ccc2c(c1)c1c(n2CCc2ccccn2)CN2CCC1C2` (stereo not drawn) [Compound 11]: the inhibition at 1 µM in test [1] is 20%; in test [2] it was -15%; in test [3] it was 77%; in test [4], 10%.

For the compound `Cc1ccc2c(c1)c1c(n2CCc2ccc(C)nc2)CN2CCC1C2` (stereo not drawn) [Compound 12], the inhibition at 1 µM in test [1] is 2%; in test [2] it was -4%; in test [3] it was 59%; in test [4] it was 17%.

Regarding `Cc1ccc2c(c1)c1c(n2CC(C)(O)c2ccc(Cl)c(Cl)c2)CN2CCC1C2` (stereo not drawn) [Compound 13], the inhibition at 1 µM in test [1] was 17%; in test [2], 39%; in test [3], 24%; in test [4], 82%.

Turning to `Cc1ccc2c(c1)c1c(n2CC(C)(O)c2ccc(Cl)cc2Cl)CN2CCC1C2` (stereo not drawn) [Compound 14], the inhibition at 1 µM in test [1] was found to be 1%; in test [2] it was 18%; in test [3] it was 37%; in test [4] it was 61%.

Turning to `Cc1ccc2c(c1)c1c(n2CC(C)(O)c2ccc(F)c(F)c2)CN2CCC1C2` (stereo not drawn) [Compound 15], the inhibition at 1 µM is 59% in test [1], 21% in test [2], 82% in test [3] and 82% in test [4].

For `Cc1ccc2c(c1)c1c(n2CC(C)(O)c2ccc(Cl)cc2)CN2CCC1C2` (stereo not drawn) [Compound 16], the inhibition at 1 µM in test [1] stood at 29%; in test [2], 28%; in test [3] it was 20%; in test [4] it was 92%.

On to `Cc1ccc2c(c1)c1c(n2CC(C)(O)c2ccc(F)cc2F)CN2CCC1C2` (stereo not drawn) [Compound 17], for which the inhibition at 1 µM in test [1] was found to be 9%; in test [2], 4%; in test [3], 16%; in test [4] it was 81%.

Regarding `Cc1ccc2c(c1)c1c(n2C#Cc2ccc(Cl)cc2)CN2CCC1C2` (stereo not drawn) [Compound 35], the inhibition at 1 µM in test [1] came to 12%; in test [3], 0%; in test [4] it was 87%.

Turning to `C/C(=C/n1c2c(c3cc(C)ccc31)C1CCN(C2)C1)c1ccccc1F` (stereo not drawn) [Compound 37], the results for the inhibition at 1 µM in test [1], in test [3] and in test [4] were 70%, 78% and 96%, respectively.

With `C/C(=C\n1c2c(c3cc(C)ccc31)C1CCN(C2)C1)c1ccc(F)c(F)c1` (stereo not drawn) [Compound 39], the inhibition at 1 µM in test [1] turned out to be 81%; in test [3], 26%; in test [4] it was 94%.

Consider `C/C(=C\n1c2c(c3cc(C)ccc31)C1CCN(C2)C1)c1ccc(Cl)c(Cl)c1` (stereo not drawn) [Compound 40], for which the inhibition at 1 µM in test [1] was found to be 12%; in test [3], 57%; in test [4], 94%.

`COc1ccc(/C(C)=C/n2c3c(c4cc(C)ccc42)C2CCN(C3)C2)cc1F` (stereo not drawn) [Compound 41]: the inhibition at 1 µM was 48% in test [1], 21% in test [3] and 92% in test [4].

In the case of `C/C(=C\n1c2c(c3cc(C)ccc31)C1CCN(C2)C1)c1cccnc1` (stereo not drawn) [Compound 42], the inhibition at 1 µM in test [1] is 26%; in test [3], 20%; in test [4], 47%.

For `Cc1ccc2c(c1)c1c(n2C(=O)Cc2ccc(F)cc2)CN2CCC1C2` (stereo not drawn) [Compound 43], the inhibition at 1 µM worked out at 7% in test [1], 16% in test [3] and 48% in test [4].

The record behind these values is US9271971B2, “Pyrido[3,4-B]indoles and methods of use” (Medivation Technologies, Inc., priority 2009, dated 2016).
